How the values were obtained:
[1] = test system: HAS-2 gene (Hyaluronic Acid Synthase-2 gene); test: Hyaluronic Acid (HA) Synthase expression, GeneChip microarray in keratinocyte culture; assay type: cell-based; details: human telomerized keratinocytes, 10 micro molar, 6 hours exposure, six Affymetrix GeneChips, p-value=0.0366
Method: Individual experiments (referred to as batches) are generally comprised of 60 Affymetrix GeneChips® (referred to as “instances”) containing 6 vehicle control samples, 2 positive control samples and 52 individual test material samples. Duplication of test materials is performed across batches. In vitro testing is performed in 6-well plates to provide sufficient RNA for GeneChip® analysis (2-4 ug total RNA yield/well). Human telomerized keratinocytes are grown in EpiLife® media with 1× Human Keratinocyte Growth Supplement (Invitrogen) on collagen I coated cell culture flasks and plates (Becton Dickinson). Cells are seeded into 6-well plates at 20,000 cells/cm2 24 hours before chemical exposure. At t=−24 hours cells are trypsinized from T-75 flasks and plated into 6-well plates in basal growth medium. At t=0 media is removed and replaced with the appropriate dosing solution as per the experimental design. Dosing solutions are prepared the previous day in sterile 4 ml Falcon snap cap tubes. After 6 hours of chemical exposure cells are viewed and imaged. Cells are then lysed with 350 ul/well of RLT buffer containing β-mercaptoethanol (Qiagen), transferred to a 96-well plate, and stored at −20° C. […]
Data quality was determined using a variety of statistical measures, including t-tests, scatter biplots, and principal components analysis, depending upon the source and character of the data. […]

[2] = test system: textured facial skin (upper cheek area); test: In vivo facial texture test (Texture Area Fraction, split face, vehicle controlled); parameters: species or system human; details: vehicle+5% Hexyldecanol, 0.5 g per side of face twice daily, topical, 8 weeks, 330 subjects
Method: A 9 week in vivo study was conducted using a round robin, vehicle controlled, split face design including a 1 week normalization period with 330 subjects.
Treatment Regimen—The regimen begins with a one week washout period. […]
Images of the facial treatment sites are captured at baseline (week 0), and after 4 and 8 weeks of treatment and analyzed for changes to facial texture. […]
The region of interest (ROI), in this case the upper cheek area, was marked manually based on 12 predefined facial landmarks around the cheek—for example, corners of the eye, bridge of the nose, corners of the mouth. The degree of textured skin in the ROI were quantified objectively using image analysis algorithms based on an Optimus software platform, which automatically locates each surface feature and quantifies the total number, length and area of facial features shorter than 5 mm and less than 0.16 mm wide, known magnification used to convert pixel data to actual length and area data. […]

CCCCCCCCC(CO)CCCCCC (centres unmarked) [Hexyldecanol, 2-hexyldecan-1-ol]
average fold change of transcriptional expression level of HAS-2 probe set IDs [1]: 1.336 fold change
Texture Area Fraction reduction versus vehicle control [2]: significantly (p<=0.10) reducing Texture Area Fraction better than the control
